In patent publication US10940139B2, “Compounds that interact with the Ras superfamily for the treatment of cancers, inflammatory diseases, rasopathies, and fibrotic disease” (Shy Therapeutics LLC, priority 2017, dated 2021):

Assays:
[1] = tested on: IL6 production in RAW 264.7 macrophage cell line; experiment: Mouse IL6 quantification assay (LPS-stimulated macrophages, ELISA); type: cell-based; conditions: RAW264.7, RAW 264.7 murine leukemia virus transformed macrophage cell lines, LPS stimulation, read-out: IL-6 % Inhibition at 30 μM
[2] = tested on: TNFα production in RAW 264.7 macrophage cell line; experiment: Mouse TNF alpha quantification assay (LPS-stimulated macrophages, ELISA); type: cell-based; conditions: RAW264.7, RAW 264.7 murine leukemia virus transformed macrophage cell lines, LPS stimulation, read-out: TNF-α % Inhibition at 30 μM

## Cc1sc2c(O)nc(-c3nccn3C)nc2c1-c1ccc(F)cc1F [drawing 2448]
[1]
  inhibition at 30 µM: 51 to 75%
[2]
  inhibition at 30 µM: 0%

## NC(=O)C1CCCN1C(=O)c1cccc(-c2cc3nc(N)nc(O)c3s2)c1 (centres unmarked) [drawing 2371]
[1]
  inhibition at 30 µM: 0%
[2]
  inhibition at 30 µM: 0%

## O=C(Cc1cccs1)Nc1nnc(-c2ccccn2)[nH]1 [drawing 1953]
[1]
  inhibition at 30 µM: 1 to 25%
[2]
  inhibition at 30 µM: 1 to 25%

## CC(Oc1ccccc1C#N)C(=O)Nc1nnc(-c2ccccn2)[nH]1 (centres unmarked) [drawing 1966]
[1]
  inhibition at 30 µM: 0%
[2]
  inhibition at 30 µM: 1 to 25%

## Oc1nc(-c2ccccn2)nc2c(-c3ccc(C4CCC4)cc3)csc12 [drawing 2257]
[1]
  inhibition at 30 µM: 51 to 75%
[2]
  inhibition at 30 µM: 0%

## O=C(Nc1nc(-c2ccccn2)cs1)c1ccccn1 [drawing 2014]
[1]
  inhibition at 30 µM: 51 to 75%
[2]
  inhibition at 30 µM: 1 to 25%

## O=C(Nc1nnc(-c2ccccn2)[nH]1)C1COc2ccccc2C1 (centres unmarked) [drawing 1955]
[1]
  inhibition at 30 µM: 26 to 50%
[2]
  inhibition at 30 µM: 1 to 25%

## CC(C)COc1ccc(-c2csc3c(O)nc(-c4ccccn4)nc23)cn1 [drawing 2269]
[1]
  inhibition at 30 µM: 76 to 100%
[2]
  inhibition at 30 µM: 51 to 75%

## O=C(Nc1nnc(-c2ccccn2)[nH]1)c1ccc(CN2C(=O)CCC2=O)cc1 [drawing 1950]
[1]
  inhibition at 30 µM: 0%
[2]
  inhibition at 30 µM: 1 to 25%

## Oc1nc(-c2ccccn2)nc2c(-c3ccnn3-c3ccccn3)csc12 [drawing 2296]
[1]
  inhibition at 30 µM: 51 to 75%
[2]
  inhibition at 30 µM: 0%

## NC(=O)C1CCCN(c2nc(-c3ccccn3)nc3scc(-c4ccccc4)c23)C1 (centres unmarked) [drawing 2160]
[1]
  inhibition at 30 µM: 1 to 25%
[2]
  inhibition at 30 µM: 1 to 25%

## O=C(c1ccccn1)N1CCCc2c(O)nc(-c3ccccn3)nc21 [drawing 2087]
[1]
  inhibition at 30 µM: 1 to 25%
[2]
  inhibition at 30 µM: 1 to 25%

## COCCN(C)c1nc(-c2nccn2C)nc2sc(-c3ccccc3)c(-c3ccccc3)c12 [drawing 2393]
[1]
  inhibition at 30 µM: 76 to 100%
[2]
  inhibition at 30 µM: 76 to 100%

## Cc1sc2c(O)nc(-c3ccccn3)nc2c1-c1ccccc1 [drawing 2297]
[1]
  inhibition at 30 µM: 76 to 100%
[2]
  inhibition at 30 µM: 76 to 100%

## O=C(c1csc2c(O)nc(-c3ccccn3)nc12)N1CCN(c2ccc(O)c(Cl)c2)CC1 [drawing 2214]
[1]
  inhibition at 30 µM: 26 to 50%
[2]
  inhibition at 30 µM: 0%

## O=C(c1ccn(-c2ccccc2)n1)N1CCCc2c(O)nc(-c3ccccn3)nc21 [drawing 2076]
[1]
  inhibition at 30 µM: 76 to 100%
[2]
  inhibition at 30 µM: 26 to 50%

## Oc1nc(-c2ccccn2)nc2c3c(sc12)CNC3 [drawing 2315]
[1]
  inhibition at 30 µM: 0%
[2]
  inhibition at 30 µM: 1 to 25%

## Oc1nc(-c2ccccn2)nc2cc(-c3ccc(-c4ccccc4)cc3)sc12 [drawing 2386]
[1]
  inhibition at 30 µM: 51 to 75%
[2]
  inhibition at 30 µM: 1 to 25%

## Cn1ccnc1-c1nc(NCCCO)c2c(-c3ccccc3)c(-c3ccccc3)sc2n1 [drawing 2406]
[1]
  inhibition at 30 µM: 51 to 75%
[2]
  inhibition at 30 µM: 26 to 50%

## Cc1ccc(-c2csc3c(O)nc(-c4ccccn4)nc23)cc1 [drawing 2387]
[1]
  inhibition at 30 µM: 0%
[2]
  inhibition at 30 µM: 1 to 25%

## O=C(c1csc2c(O)nc(-c3ccccn3)nc12)N1CCOC(c2ccccc2)C1 (centres unmarked) [drawing 2191]
[1]
  inhibition at 30 µM: 51 to 75%
[2]
  inhibition at 30 µM: 0%

## CS(=O)(=O)c1cccc(C(=O)N2CCCc3c(O)nc(-c4ccccn4)nc32)c1 [drawing 2079]
[1]
  inhibition at 30 µM: 51 to 75%
[2]
  inhibition at 30 µM: 0%

## Cn1cnc(-c2nc(O)c3scc(-c4cccc(OC(F)(F)F)c4)c3n2)c1 [drawing 2433]
[1]
  inhibition at 30 µM: 0%
[2]
  inhibition at 30 µM: 0%

## COc1ccc(CCC(=O)Nc2nnc(-c3ccccn3)[nH]2)cc1F [drawing 1929]
[1]
  inhibition at 30 µM: 1 to 25%
[2]
  inhibition at 30 µM: 26 to 50%

## Oc1nc(-c2ccccn2)nc2c(-c3ccccn3)csc12 [drawing 2288]
[1]
  inhibition at 30 µM: 76 to 100%
[2]
  inhibition at 30 µM: 76 to 100%

## COc1cnc(-c2nccn2C)nc1O [drawing 2340]
[1]
  inhibition at 30 µM: 1 to 25%
[2]
  inhibition at 30 µM: 0%

## O=C(Cc1ccc(F)cc1)Nc1nnc(-c2ccccn2)[nH]1 [drawing 1970]
[1]
  inhibition at 30 µM: 1 to 25%
[2]
  inhibition at 30 µM: 1 to 25%

## CC(Oc1ccc(C(=O)Nc2nnc(-c3ccccn3)[nH]2)cn1)c1ccccc1 (centres unmarked) [drawing 1968]
[1]
  inhibition at 30 µM: 1 to 25%
[2]
  inhibition at 30 µM: 0%

## COc1cnc(-c2ccccn2)nc1O [drawing 2307]
[1]
  inhibition at 30 µM: 76 to 100%
[2]
  inhibition at 30 µM: 1 to 25%

## CCCOc1ccc2ccccc2c1CN(C)S(=O)(=O)N1CC(C)OC(C)C1 (centres unmarked) [drawing 2061]
[1]
  inhibition at 30 µM: 1 to 25%
[2]
  inhibition at 30 µM: 51 to 75%

## Nc1nc(-c2ccccn2)nc2scc(C(=O)O)c12 [drawing 2298]
[1]
  inhibition at 30 µM: 1 to 25%
[2]
  inhibition at 30 µM: 1 to 25%

## O=C(Nc1nc(-c2ccccn2)cs1)C1CC(=O)N(c2ccc3c(c2)OCCO3)C1 (centres unmarked) [drawing 2016]
[1]
  inhibition at 30 µM: 26 to 50%
[2]
  inhibition at 30 µM: 1 to 25%

## COc1ccnc(-c2nc(O)c3ccsc3n2)c1 [drawing 2166]
[1]
  inhibition at 30 µM: 1 to 25%
[2]
  inhibition at 30 µM: 1 to 25%

## Cc1cnc(-c2ccccn2)nc1NC(=O)C1CCCc2cc(C#N)ccc21 (centres unmarked) [drawing 2220]
[1]
  inhibition at 30 µM: 76 to 100%
[2]
  inhibition at 30 µM: 51 to 75%

## COC(=O)c1c(C)sc2c(O)nc(-c3ccccn3)nc12 [drawing 2311]
[1]
  inhibition at 30 µM: 76 to 100%
[2]
  inhibition at 30 µM: 1 to 25%

## Oc1nc(-c2ccccn2)nc2c1CCCN2 [drawing 2070]
[1]
  inhibition at 30 µM: 26 to 50%
[2]
  inhibition at 30 µM: 1 to 25%

## O=C(NCCc1cncs1)c1csc2nc(-c3ccccn3)nc(N3CCOCC3)c12 [drawing 2176]
[1]
  inhibition at 30 µM: 1 to 25%
[2]
  inhibition at 30 µM: 0%

## Cc1sc2c(O)nc(-c3ccccn3)nc2c1-c1cccnc1 [drawing 2306]
[1]
  inhibition at 30 µM: 51 to 75%
[2]
  inhibition at 30 µM: 0%

## O=C(c1ccc(=O)[nH]n1)N1CCCc2c(O)nc(-c3ccccn3)nc21 [drawing 2078]
[1]
  inhibition at 30 µM: 76 to 100%
[2]
  inhibition at 30 µM: 1 to 25%

## Oc1nc(-c2ccccn2)nc2c(-c3ccc(OC4CCCCC4)cc3)csc12 [drawing 2279]
[1]
  inhibition at 30 µM: 76 to 100%
[2]
  inhibition at 30 µM: 76 to 100%

## Cc1sc2c(O)nc(-c3ccccn3)nc2c1-c1ccncc1 [drawing 2331]
[1]
  inhibition at 30 µM: 26 to 50%
[2]
  inhibition at 30 µM: 0%

## Oc1nc(-c2ccccn2)nc2c(-c3ccccc3)c(-c3ccncc3)sc12 [drawing 2375]
[1]
  inhibition at 30 µM: 1 to 25%
[2]
  inhibition at 30 µM: 0%

## Oc1nc(-c2ccccn2)nc2cc(-c3cccc(Br)c3)sc12 [drawing 2391]
[1]
  inhibition at 30 µM: 1 to 25%
[2]
  inhibition at 30 µM: 1 to 25%

## O=C(c1csc2c(O)nc(-c3ccccn3)nc12)N1CCC(N2CCCC2=O)CC1 [drawing 2106]
[1]
  inhibition at 30 µM: 1 to 25%
[2]
  inhibition at 30 µM: 26 to 50%

## OCCn1ncc2c1CCCC2Nc1nc(-c2ccccn2)nc2scc(-c3ccccc3)c12 (centres unmarked)
[1]
  inhibition at 30 µM: 26 to 50%
[2]
  inhibition at 30 µM: 26 to 50%

## COCCNc1nc(-c2nccn2C)nc2sc(-c3ccccc3)c(-c3ccncc3)c12 [drawing 2423]
[1]
  inhibition at 30 µM: 51 to 75%
[2]
  inhibition at 30 µM: 1 to 25%

## OCCNc1nc(-c2ccccn2)nc2scc(-c3ccccc3)c12 [drawing 2038]
[1]
  inhibition at 30 µM: 1 to 25%
[2]
  inhibition at 30 µM: 0%

## COc1nc(-c2ccccn2)nc2c(C3CCCC3)csc12 [drawing 2309]
[1]
  inhibition at 30 µM: 0%
[2]
  inhibition at 30 µM: 0%

## CC(C)CNC(=O)CN1CCN(c2nc(-c3ccccn3)nc3scc(-c4ccccc4)c23)CC1 [drawing 2151]
[1]
  inhibition at 30 µM: 76 to 100%
[2]
  inhibition at 30 µM: 26 to 50%

## COc1ccc(CN(CC[S+]([O-])c2cc(Cl)ccc2Cl)C2CC2)cc1 (centres unmarked) [drawing 2060]
[1]
  inhibition at 30 µM: 0%
[2]
  inhibition at 30 µM: 1 to 25%

## O=C(Nc1nnc(-c2ccccn2)[nH]1)c1ccc(=O)n(CCOc2ccccc2)n1 [drawing 1999]
[1]
  inhibition at 30 µM: 26 to 50%
[2]
  inhibition at 30 µM: 0%

## COCCNc1nc(-c2nccn2C)nc2sc(-c3ccc(OC)cc3)c(-c3ccccc3)c12 [drawing 2424]
[1]
  inhibition at 30 µM: 76 to 100%
[2]
  inhibition at 30 µM: 51 to 75%

## CC(C)Cc1csc2c(O)nc(-c3ccccn3)nc12 [drawing 2338]
[1]
  inhibition at 30 µM: 76 to 100%
[2]
  inhibition at 30 µM: 76 to 100%

## O=C(Cc1ccc(-n2cnnn2)cc1)Nc1nnc(-c2ccccn2)[nH]1 [drawing 1927]
[1]
  inhibition at 30 µM: 0%
[2]
  inhibition at 30 µM: 1 to 25%

## CC(CC(=O)N1CCOCC1)c1nc(-c2ccccn2)nc2scc(-c3ccccc3)c12 (centres unmarked)
[1]
  inhibition at 30 µM: 1 to 25%
[2]
  inhibition at 30 µM: 1 to 25%

## COc1ccc(CCN(C)C(=O)c2csc3nc(-c4ccccn4)nc(N4CCOCC4)c23)cn1 [drawing 2173]
[1]
  inhibition at 30 µM: 26 to 50%
[2]
  inhibition at 30 µM: 0%

## Oc1nc(-c2ccccn2)nc2[nH]cnc12 [drawing 2122]
[1]
  inhibition at 30 µM: 76 to 100%
[2]
  inhibition at 30 µM: 76 to 100%

## O=C(c1csc2c(O)nc(-c3ccccn3)nc12)N1CCc2ccccc2CC1 [drawing 2116]
[1]
  inhibition at 30 µM: 51 to 75%
[2]
  inhibition at 30 µM: 0%

## O=C(COCc1ccncc1)Nc1nc(-c2ccccn2)nc2sccc12 [drawing 2221]
[1]
  inhibition at 30 µM: 76 to 100%
[2]
  inhibition at 30 µM: 1 to 25%

## CC(C(=O)Nc1nc(-c2ccccn2)nc2sccc12)c1ccc(C#N)cc1 (centres unmarked) [drawing 2210]
[1]
  inhibition at 30 µM: 51 to 75%
[2]
  inhibition at 30 µM: 0%

## O=C(CCn1ccc2ccccc21)Nc1nnc(-c2ccccn2)[nH]1 [drawing 1934]
[1]
  inhibition at 30 µM: 1 to 25%
[2]
  inhibition at 30 µM: 1 to 25%

## COc1cc(-c2csc3c(O)nc(-c4ccccn4)nc23)cnc1C(F)(F)F [drawing 2276]
[1]
  inhibition at 30 µM: 51 to 75%
[2]
  inhibition at 30 µM: 1 to 25%

## O=C(Cc1ccc2c(c1)OCO2)Nc1nnc(-c2ccccn2)[nH]1 [drawing 1996]
[1]
  inhibition at 30 µM: 26 to 50%
[2]
  inhibition at 30 µM: 1 to 25%

## CC(C)Oc1ccc(-c2c(-c3ccccc3)sc3c(O)nc(-c4nccn4C)nc23)cc1F [drawing 2438]
[1]
  inhibition at 30 µM: 1 to 25%
[2]
  inhibition at 30 µM: 0%

## Oc1nc(-c2ncccn2)nc2c(-c3cccc(C(F)(F)F)c3)csc12 [drawing 2435]
[1]
  inhibition at 30 µM: 1 to 25%
[2]
  inhibition at 30 µM: 26 to 50%

## Nc1nc(-c2ccccn2)nc2c(-c3ccccc3Cl)csc12 [drawing 2228]
[1]
  inhibition at 30 µM: 76 to 100%
[2]
  inhibition at 30 µM: 1 to 25%

## Cc1sc2nc(-c3ccccn3)nc(NCCCO)c2c1-c1ccccc1 [drawing 2045]
[1]
  inhibition at 30 µM: 1 to 25%
[2]
  inhibition at 30 µM: 1 to 25%
